{"source": "the supplement of paper PMC11414989", "conditions_in_all_cases": "exposure window: 6 hpf to 120 hpf, static, assay age: 120 hpf (5 dpf)", "key": {"[1]": {"tested_on": "Danio rerio larvae (Tropical 5D)", "test": "mean angular velocity of exposed larvae, light phase (angular velocity (unit not stated)); higher = more movement", "procedure": "(§1)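 Larval photomotor response in Tropical 5D wild-type zebrafish. Larvae were statically exposed to each chemical from 6 hpf to 5 dpf in 96-well plates; morphologically abnormal larvae were excluded. At 120 hpf, larvae were tracked with Ethovision XT (25 frames/s) over the 2nd cycle of 3 min light and 3 min dark. Values are the mean movement metric of exposed larvae per phase; same-plate control means (plate-dependent baseline) are given as conditions.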"}, "[2]": {"tested_on": "Danio rerio larvae (Tropical 5D)", "test": "mean distance moved of exposed larvae, light phase (µm per frame (1/25 s)); higher = more movement", "procedure": "as §1"}, "[3]": {"tested_on": "Danio rerio larvae (Tropical 5D)", "test": "mean angular velocity of exposed larvae, dark phase (angular velocity (unit not stated)); higher = more movement", "procedure": "as §1"}, "[4]": {"tested_on": "Danio rerio larvae (Tropical 5D)", "test": "mean distance moved of exposed larvae, dark phase (µm per frame (1/25 s)); higher = more movement", "procedure": "as §1"}}}
{"smiles": "Cc1ccc2c(ccc3ccccc32)c1", "note": "[2-Methylphenanthrene]", "values": [{"measurement": "mean angular velocity of exposed larvae", "setting": "[1]; 1 µM", "result": 0.0841}, {"measurement": "mean angular velocity of exposed larvae", "setting": "[1]; 2.54 µM", "result": 0.0709}, {"measurement": "mean angular velocity of exposed larvae", "setting": "[1]; 6.45 µM", "result": 0.0511}, {"measurement": "mean angular velocity of exposed larvae", "setting": "[1]; 16.4 µM", "result": 0.126}, {"measurement": "mean angular velocity of exposed larvae", "setting": "[1]; 35 µM", "result": 0.0754}, {"measurement": "mean angular velocity of exposed larvae", "setting": "[1]; 74.8 µM", "result": 0.0848}, {"measurement": "mean angular velocity of exposed larvae", "setting": "[1]; 100 µM", "result": 0.0583}, {"measurement": "mean distance moved of exposed larvae", "setting": "[2]; 1 µM", "result": 2.38}, {"measurement": "mean distance moved of exposed larvae", "setting": "[2]; 2.54 µM", "result": 1.4}, {"measurement": "mean distance moved of exposed larvae", "setting": "[2]; 6.45 µM", "result": 1.73}, {"measurement": "mean distance moved of exposed larvae", "setting": "[2]; 16.4 µM", "result": 2.82}, {"measurement": "mean distance moved of exposed larvae", "setting": "[2]; 35 µM", "result": 1.74}, {"measurement": "mean distance moved of exposed larvae", "setting": "[2]; 74.8 µM", "result": 2.4}, {"measurement": "mean distance moved of exposed larvae", "setting": "[2]; 100 µM", "result": 1.83}, {"measurement": "mean angular velocity of exposed larvae", "setting": "[3]; 1 µM", "result": 0.536}, {"measurement": "mean angular velocity of exposed larvae", "setting": "[3]; 2.54 µM", "result": 0.424}, {"measurement": "mean angular velocity of exposed larvae", "setting": "[3]; 6.45 µM", "result": 0.539}, {"measurement": "mean angular velocity of exposed larvae", "setting": "[3]; 16.4 µM", "result": 0.592}, {"measurement": "mean angular velocity of exposed larvae", "setting": "[3]; 35 µM", "result": 0.507}, {"measurement": "mean angular velocity of exposed larvae", "setting": "[3]; 74.8 µM", "result": 0.473}, {"measurement": "mean angular velocity of exposed larvae", "setting": "[3]; 100 µM", "result": 0.439}, {"measurement": "mean distance moved of exposed larvae", "setting": "[4]; 1 µM", "result": 16.4}, {"measurement": "mean distance moved of exposed larvae", "setting": "[4]; 2.54 µM", "result": 12.1}, {"measurement": "mean distance moved of exposed larvae", "setting": "[4]; 6.45 µM", "result": 15}, {"measurement": "mean distance moved of exposed larvae", "setting": "[4]; 16.4 µM", "result": 15.5}, {"measurement": "mean distance moved of exposed larvae", "setting": "[4]; 35 µM", "result": 16.9}, {"measurement": "mean distance moved of exposed larvae", "setting": "[4]; 74.8 µM", "result": 13.3}, {"measurement": "mean distance moved of exposed larvae", "setting": "[4]; 100 µM", "result": 13.2}]}
{"smiles": "NC(=O)C(F)(F)C(F)(F)C(F)(F)C(F)(F)F", "note": "[Nonafluoropentanamide]", "values": [{"measurement": "mean angular velocity of exposed larvae", "setting": "[1]; 0.015 µM", "result": 0.107}, {"measurement": "mean angular velocity of exposed larvae", "setting": "[1]; 0.046 µM", "result": 0.153}, {"measurement": "mean angular velocity of exposed larvae", "setting": "[1]; 0.14 µM", "result": 0.163}, {"measurement": "mean angular velocity of exposed larvae", "setting": "[1]; 0.41 µM", "result": 0.0614}, {"measurement": "mean angular velocity of exposed larvae", "setting": "[1]; 1.23 µM", "result": 0.124}, {"measurement": "mean angular velocity of exposed larvae", "setting": "[1]; 3.7 µM", "result": 0.0715}, {"measurement": "mean angular velocity of exposed larvae", "setting": "[1]; 11.1 µM", "result": 0.078}, {"measurement": "mean angular velocity of exposed larvae", "setting": "[1]; 33.3 µM", "result": 0.103}, {"measurement": "mean angular velocity of exposed larvae", "setting": "[1]; 66.5 µM", "result": 0.0723}, {"measurement": "mean angular velocity of exposed larvae", "setting": "[1]; 100 µM", "result": 0.107}, {"measurement": "mean distance moved of exposed larvae", "setting": "[2]; 0.015 µM", "result": 2.24}, {"measurement": "mean distance moved of exposed larvae", "setting": "[2]; 0.046 µM", "result": 4.1}, {"measurement": "mean distance moved of exposed larvae", "setting": "[2]; 0.14 µM", "result": 3.32}, {"measurement": "mean distance moved of exposed larvae", "setting": "[2]; 0.41 µM", "result": 2.83}, {"measurement": "mean distance moved of exposed larvae", "setting": "[2]; 1.23 µM", "result": 1.91}, {"measurement": "mean distance moved of exposed larvae", "setting": "[2]; 3.7 µM", "result": 2.44}, {"measurement": "mean distance moved of exposed larvae", "setting": "[2]; 11.1 µM", "result": 3.86}, {"measurement": "mean distance moved of exposed larvae", "setting": "[2]; 33.3 µM", "result": 2.5}, {"measurement": "mean distance moved of exposed larvae", "setting": "[2]; 66.5 µM", "result": 2.36}, {"measurement": "mean distance moved of exposed larvae", "setting": "[2]; 100 µM", "result": 2.76}, {"measurement": "mean angular velocity of exposed larvae", "setting": "[3]; 0.015 µM", "result": 0.911}, {"measurement": "mean angular velocity of exposed larvae", "setting": "[3]; 0.046 µM", "result": 1.03}, {"measurement": "mean angular velocity of exposed larvae", "setting": "[3]; 0.14 µM", "result": 0.788}, {"measurement": "mean angular velocity of exposed larvae", "setting": "[3]; 0.41 µM", "result": 0.731}, {"measurement": "mean angular velocity of exposed larvae", "setting": "[3]; 1.23 µM", "result": 0.649}, {"measurement": "mean angular velocity of exposed larvae", "setting": "[3]; 3.7 µM", "result": 0.476}, {"measurement": "mean angular velocity of exposed larvae", "setting": "[3]; 11.1 µM", "result": 0.903}, {"measurement": "mean angular velocity of exposed larvae", "setting": "[3]; 33.3 µM", "result": 0.989}, {"measurement": "mean angular velocity of exposed larvae", "setting": "[3]; 66.5 µM", "result": 0.804}, {"measurement": "mean angular velocity of exposed larvae", "setting": "[3]; 100 µM", "result": 0.714}, {"measurement": "mean distance moved of exposed larvae", "setting": "[4]; 0.015 µM", "result": 25.4}, {"measurement": "mean distance moved of exposed larvae", "setting": "[4]; 0.046 µM", "result": 26.1}, {"measurement": "mean distance moved of exposed larvae", "setting": "[4]; 0.14 µM", "result": 19.4}, {"measurement": "mean distance moved of exposed larvae", "setting": "[4]; 0.41 µM", "result": 25.8}, {"measurement": "mean distance moved of exposed larvae", "setting": "[4]; 1.23 µM", "result": 17.3}, {"measurement": "mean distance moved of exposed larvae", "setting": "[4]; 3.7 µM", "result": 12.1}, {"measurement": "mean distance moved of exposed larvae", "setting": "[4]; 11.1 µM", "result": 23.9}, {"measurement": "mean distance moved of exposed larvae", "setting": "[4]; 33.3 µM", "result": 26.5}, {"measurement": "mean distance moved of exposed larvae", "setting": "[4]; 66.5 µM", "result": 18.1}, {"measurement": "mean distance moved of exposed larvae", "setting": "[4]; 100 µM", "result": 19.5}]}
{"smiles": "O=C(O)CCC(F)(F)C(F)(F)C(F)(F)C(F)(F)C(F)(F)C(F)(F)C(F)(F)F", "note": "[3-Perfluoroheptyl propanoic acid]", "values": [{"measurement": "mean angular velocity of exposed larvae", "setting": "[1]; 0.25 µM", "result": 0.0662}, {"measurement": "mean distance moved of exposed larvae", "setting": "[2]; 0.25 µM", "result": 1.75}, {"measurement": "mean angular velocity of exposed larvae", "setting": "[3]; 0.25 µM", "result": 0.534}, {"measurement": "mean distance moved of exposed larvae", "setting": "[4]; 0.25 µM", "result": 12.1}]}
{"smiles": "Cc1cccc2c1ccc1ccccc12", "note": "[1-Methylphenanthrene]", "values": [{"measurement": "mean angular velocity of exposed larvae", "setting": "[1]; 1 µM", "result": 0.118}, {"measurement": "mean angular velocity of exposed larvae", "setting": "[1]; 2.54 µM", "result": 0.119}, {"measurement": "mean angular velocity of exposed larvae", "setting": "[1]; 6.45 µM", "result": 0.139}, {"measurement": "mean angular velocity of exposed larvae", "setting": "[1]; 16.4 µM", "result": 0.133}, {"measurement": "mean angular velocity of exposed larvae", "setting": "[1]; 35 µM", "result": 0.126}, {"measurement": "mean angular velocity of exposed larvae", "setting": "[1]; 74.8 µM", "result": 0.12}, {"measurement": "mean angular velocity of exposed larvae", "setting": "[1]; 100 µM", "result": 0.143}, {"measurement": "mean distance moved of exposed larvae", "setting": "[2]; 1 µM", "result": 5.24}, {"measurement": "mean distance moved of exposed larvae", "setting": "[2]; 2.54 µM", "result": 4.47}, {"measurement": "mean distance moved of exposed larvae", "setting": "[2]; 6.45 µM", "result": 4.85}, {"measurement": "mean distance moved of exposed larvae", "setting": "[2]; 16.4 µM", "result": 5.17}, {"measurement": "mean distance moved of exposed larvae", "setting": "[2]; 35 µM", "result": 4.57}, {"measurement": "mean distance moved of exposed larvae", "setting": "[2]; 74.8 µM", "result": 4.58}, {"measurement": "mean distance moved of exposed larvae", "setting": "[2]; 100 µM", "result": 5.53}, {"measurement": "mean angular velocity of exposed larvae", "setting": "[3]; 1 µM", "result": 0.432}, {"measurement": "mean angular velocity of exposed larvae", "setting": "[3]; 2.54 µM", "result": 0.487}, {"measurement": "mean angular velocity of exposed larvae", "setting": "[3]; 6.45 µM", "result": 0.604}, {"measurement": "mean angular velocity of exposed larvae", "setting": "[3]; 16.4 µM", "result": 0.563}, {"measurement": "mean angular velocity of exposed larvae", "setting": "[3]; 35 µM", "result": 0.642}, {"measurement": "mean angular velocity of exposed larvae", "setting": "[3]; 74.8 µM", "result": 0.39}, {"measurement": "mean angular velocity of exposed larvae", "setting": "[3]; 100 µM", "result": 0.294}, {"measurement": "mean distance moved of exposed larvae", "setting": "[4]; 1 µM", "result": 14.6}, {"measurement": "mean distance moved of exposed larvae", "setting": "[4]; 2.54 µM", "result": 16.3}, {"measurement": "mean distance moved of exposed larvae", "setting": "[4]; 6.45 µM", "result": 19.4}, {"measurement": "mean distance moved of exposed larvae", "setting": "[4]; 16.4 µM", "result": 17.5}, {"measurement": "mean distance moved of exposed larvae", "setting": "[4]; 35 µM", "result": 21.2}, {"measurement": "mean distance moved of exposed larvae", "setting": "[4]; 74.8 µM", "result": 12.8}, {"measurement": "mean distance moved of exposed larvae", "setting": "[4]; 100 µM", "result": 10.4}]}
{"smiles": "O=P(O)(O)C(F)(F)C(F)(F)C(F)(F)C(F)(F)C(F)(F)C(F)(F)C(F)(F)C(F)(F)F", "note": "[Perfluorooctylphosphonic acid]", "values": [{"measurement": "mean angular velocity of exposed larvae", "setting": "[1]; 0.25 µM", "result": 0.308}, {"measurement": "mean distance moved of exposed larvae", "setting": "[2]; 0.25 µM", "result": 10.3}, {"measurement": "mean angular velocity of exposed larvae", "setting": "[3]; 0.25 µM", "result": 0.959}, {"measurement": "mean distance moved of exposed larvae", "setting": "[4]; 0.25 µM", "result": 29.9}]}
